Assay results published in a melting point compilation (Tetko et al.).

conditions: a range is the spread between reports

Which melting point does the source give for `COc1cc([N+](=O)[O-])ccc1N` here?
Its melting point is 140 to 141 °C.

For `C=C(C)CCC(=C)C`, which melting point is on record?
Its melting point is -75.6 to -75 °C.

For `Nc1ccccc1C(F)(F)F`, which melting point is on record?
The melting point was -34 to -29 °C.

With `COc1ccc(C(=O)c2ccccc2)c(O)c1` as the compound, how does the melting point read?
The melting point was 64 to 65.5 °C.

Which melting point does the source give for `O=[N+]([O-])c1c(F)cc(F)cc1F` here?
Its melting point is 3.5 to 4 °C.

For `Cc1ccc(CO)cc1`, which melting point is on record?
Its melting point is 59 to 61.5 °C.

With `Nc1ccc2c(c1)Cc1ccccc1-2` as the compound, how does the melting point read?
The melting point was 128 to 129 °C.

With `Nc1ccc([N+](=O)[O-])cc1N` as the compound, how does the melting point read?
The melting point was 199 to 201 °C.

For `c1ccc2ocnc2c1`, which melting point is on record?
Its melting point is 30 to 31 °C.

With `O=[N+]([O-])c1cc(Cl)ccc1O` as the compound, how does the melting point read?
The melting point was 87 to 89 °C.

With `N#Cc1ccc2c(c1)OCO2` as the compound, how does the melting point read?
Its melting point is 93 to 94 °C.

With `CC(C)C(C)(C)C(C)C` as the compound, how does the melting point read?
Its melting point is -102 °C.

With `CC(C)C=O` as the compound, how does the melting point read?
Its melting point is -65.9 to -65 °C.

For `CC1OC1C` (stereo unspecified), which melting point is on record?
Its melting point is -85 to -80 °C.

Which melting point does the source give for `CC(C)CCC(=O)O` here?
Its melting point is -35 to -33 °C.

For `COC(=O)c1cc(Cl)ccc1N`, which melting point is on record?
The melting point was 67 to 69 °C.

With `CCCCCCCC` as the compound, how does the melting point read?
The melting point was -57 to -56.8 °C.

With `COC(=O)c1ccccc1C(=O)OC` as the compound, how does the melting point read?
The melting point was 2 to 5.5 °C.

With `CC1OC(C)OC(C)O1` (stereo unspecified) as the compound, how does the melting point read?
The melting point was 12 to 12.6 °C.

For `c1ccsc1`, which melting point is on record?
The melting point was -39.4 to -38 °C.

For `NC(=O)c1cccc([N+](=O)[O-])c1`, which melting point is on record?
Its melting point is 142 to 143 °C.

For `CCc1ccc(N)cc1`, which melting point is on record?
The melting point was -5 to -4.8 °C.

With `Cc1cc(C)c(C)c(O)c1` as the compound, how does the melting point read?
Its melting point is 93.5 to 94 °C.

With `O=C(O)c1ccccc1Cl` as the compound, how does the melting point read?
The melting point was 139 to 142 °C.

Which melting point does the source give for `Cc1ccc(C(C)C)cc2c(C)ccc1-2` here?
The melting point was 31.5 to 32 °C.

Which melting point does the source give for `O=S(=O)(c1ccccc1)c1ccc(Cl)cc1` here?
Its melting point is 92 to 94 °C.

Which melting point does the source give for `O=C1CCOc2ccccc21` here?
The melting point was 36.5 to 38 °C.

For `O=C(c1ccccc1)c1ccc(Br)cc1`, which melting point is on record?
The melting point was 81 to 82.5 °C.

With `c1ccc(NC2CCCCC2)cc1` as the compound, how does the melting point read?
The melting point was 15 to 16 °C.

For `O=C1c2ccccc2C(=O)c2c(O)ccc(O)c21`, which melting point is on record?
Its melting point is 197 to 200 °C.

With `Cc1c[nH]cn1` as the compound, how does the melting point read?
Its melting point is 51 to 56 °C.

For `O=C(O)COc1ccc(F)cc1`, which melting point is on record?
Its melting point is 104 to 105 °C.

For `N[C@@H](Cc1c[nH]cn1)C(=O)O`, which melting point is on record?
The melting point was 282 to 287 °C.

For `O=C(O)c1ccc([N+](=O)[O-])cc1C(=O)O`, which melting point is on record?
The melting point was 162 to 163 °C.

With `C=C(C)CCCCCC` as the compound, how does the melting point read?
The melting point was -78 to -77.8 °C.

Which melting point does the source give for `Cc1cccc2c1ccc1cc(C(C)C)ccc12` here?
Its melting point is 99 to 101 °C.

With `COc1ccc(OC)c(C)c1` as the compound, how does the melting point read?
Its melting point is 15 to 20 °C.

With `NC(=O)C(Cl)Cl` as the compound, how does the melting point read?
The melting point was 99 to 99.4 °C.

For `N#Cc1cccc([N+](=O)[O-])c1`, which melting point is on record?
The melting point was 116 to 117 °C.

Which melting point does the source give for `CC1(C)CC(=O)CC(=O)C1` here?
Its melting point is 148 °C.

For `O=C(O)c1cc2ccccc2o1`, which melting point is on record?
The melting point was 192 to 194 °C.

For `C1=Cc2ccccc2C1`, which melting point is on record?
The melting point was -2 to -1.8 °C.

Which melting point does the source give for `CC(=O)c1ccc(Br)s1` here?
Its melting point is 94.5 to 95 °C.

With `Sc1ccc(Br)cc1` as the compound, how does the melting point read?
Its melting point is 73 to 75 °C.

Which melting point does the source give for `CCOC(=O)c1ccc(OC)c(OC)c1` here?
Its melting point is 43.5 to 44 °C.

For `COc1ccc(C#N)cc1`, which melting point is on record?
The melting point was 59 to 61.5 °C.

Which melting point does the source give for `Cc1cc(C)nc(C)c1` here?
Its melting point is -46 to -43 °C.

With `Cc1cnccn1` as the compound, how does the melting point read?
Its melting point is -30 to -29 °C.

For `CCOC(=O)c1cc2ccccc2[nH]1`, which melting point is on record?
The melting point was 124 °C.

Which melting point does the source give for `ClCCl` here?
Its melting point is -97 to -95 °C.

With `CCCCCl` as the compound, how does the melting point read?
The melting point was -123 °C.

Which melting point does the source give for `O=Nc1ccccc1` here?
Its melting point is 65 to 68.5 °C.

With `CC(NC(=O)OC(C)(C)C)C(=O)O` (stereo unspecified) as the compound, how does the melting point read?
The melting point was 79.5 to 82 °C.

With `CCC#CC(C)C` as the compound, how does the melting point read?
The melting point was -117 °C.

With `N#CCC(=O)O` as the compound, how does the melting point read?
The melting point was 66 to 67 °C.

With `N#Cc1cccc(C(F)(F)F)c1` as the compound, how does the melting point read?
Its melting point is 14.5 to 16 °C.

For `IC(I)I`, which melting point is on record?
Its melting point is 119 to 122 °C.

Which melting point does the source give for `C=C(C)C(C)CC` (stereo unspecified) here?
Its melting point is -134 °C.

Which melting point does the source give for `CCCCl` here?
The melting point was -123 to -122 °C.

Which melting point does the source give for `O=Cc1ccc(C=O)cc1` here?
Its melting point is 115 to 117 °C.

With `Cc1ccco1` as the compound, how does the melting point read?
The melting point was -89 to -87.5 °C.

Which melting point does the source give for `COC(=O)C1C(OC(=O)c2ccccc2)CC2CCC1N2C` (stereo unspecified) here?
The melting point was 93.5 to 98 °C.

With `Cc1cccc(C(N)=O)c1` as the compound, how does the melting point read?
The melting point was 95 to 96 °C.

With `CCOc1ccc(C=O)cc1` as the compound, how does the melting point read?
The melting point was 13.5 to 14 °C.

Which melting point does the source give for `CCC(C)(C)C(C)(C)C` here?
The melting point was -10 to -9.8 °C.

Which melting point does the source give for `O=[N+]([O-])c1ccc(Cl)c([N+](=O)[O-])c1` here?
The melting point was 50 to 53 °C.

For `Cc1nnc(C)s1`, which melting point is on record?
Its melting point is 63 to 65 °C.

With `NC(=O)c1ccc([N+](=O)[O-])cc1Cl` as the compound, how does the melting point read?
The melting point was 170 to 172 °C.

With `CCCCCCCCCCCC(C)O` (stereo unspecified) as the compound, how does the melting point read?
The melting point was 23 to 25 °C.

For `Cc1c(N)c(=O)n(-c2ccccc2)n1C`, which melting point is on record?
Its melting point is 107 to 109 °C.

For `CCCCCOC(=O)CCC`, which melting point is on record?
Its melting point is -73.2 to -73 °C.

For `Oc1c(Br)cccc1Br`, which melting point is on record?
Its melting point is 55 to 56.5 °C.

With `CCN(CC)c1ccc(Br)cc1` as the compound, how does the melting point read?
Its melting point is 34 to 38 °C.

With `CN(C)c1cccc(O)c1` as the compound, how does the melting point read?
The melting point was 82 to 86 °C.

For `CCc1ccc2ccccc2c1`, which melting point is on record?
Its melting point is -7.45 to -7.35 °C.

Which melting point does the source give for `C=Cc1ccc(N)cc1` here?
The melting point was 23.5 to 26 °C.

With `O=C1CSC(=S)N1` as the compound, how does the melting point read?
The melting point was 169 to 170 °C.

For `O=C1CCC(=O)N1`, which melting point is on record?
Its melting point is 124 to 126 °C.

Which melting point does the source give for `ClC(Cl)(Cl)Br` here?
The melting point was -6 to -5.7 °C.

Which melting point does the source give for `CC(=O)OC(C)C` here?
Its melting point is -73.4 to -73 °C.

Which melting point does the source give for `CC(C)O` here?
Its melting point is -90 to -88 °C.

With `NS(=O)(=O)Cc1noc2ccccc12` as the compound, how does the melting point read?
Its melting point is 162 °C.

With `O=C(c1ccccc1)c1ccccc1O` as the compound, how does the melting point read?
Its melting point is 39 to 40 °C.

Which melting point does the source give for `NNC(=O)c1cccc(Br)c1` here?
Its melting point is 156 to 158 °C.

With `C=CCCC` as the compound, how does the melting point read?
Its melting point is -165 to -162 °C.

For `CCCSCCC`, which melting point is on record?
Its melting point is -103 to -102 °C.
